Read-outs that look alike come from different tables or passages of the source.
Key:
[1] = biological target: T1, 17β-hydroxysteroid dehydrogenase type 1 (17β-HSD1) (Homo sapiens, UniProt P14061); settings: earlier paper of the authors; read-out: 17β-HSD1 IC50 ± SD; cited from earlier work
T1 sequence (P14061 1-328): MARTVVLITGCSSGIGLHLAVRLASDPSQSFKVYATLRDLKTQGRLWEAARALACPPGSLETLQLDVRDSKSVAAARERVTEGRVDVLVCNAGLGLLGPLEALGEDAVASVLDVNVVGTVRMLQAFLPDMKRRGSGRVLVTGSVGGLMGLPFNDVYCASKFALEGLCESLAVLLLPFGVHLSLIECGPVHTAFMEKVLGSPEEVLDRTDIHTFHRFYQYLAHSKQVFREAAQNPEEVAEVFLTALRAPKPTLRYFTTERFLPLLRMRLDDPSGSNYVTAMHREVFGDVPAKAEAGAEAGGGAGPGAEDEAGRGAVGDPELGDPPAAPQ

human aromatase = biological target: T2, human aromatase (Homo sapiens, UniProt P11511); test: Aromatase inhibition, in vitro radiosubstrate incubation (testosterone to E2 conversion), human placental microsomes; assay type: biochemical; settings: for remaining activity at 10 µM: read-out: Arom Rel.conv. ± SD
T2 construct: from tissue; host or cells: human term placenta, microsomal fraction
T2 sequence (P11511 1-503): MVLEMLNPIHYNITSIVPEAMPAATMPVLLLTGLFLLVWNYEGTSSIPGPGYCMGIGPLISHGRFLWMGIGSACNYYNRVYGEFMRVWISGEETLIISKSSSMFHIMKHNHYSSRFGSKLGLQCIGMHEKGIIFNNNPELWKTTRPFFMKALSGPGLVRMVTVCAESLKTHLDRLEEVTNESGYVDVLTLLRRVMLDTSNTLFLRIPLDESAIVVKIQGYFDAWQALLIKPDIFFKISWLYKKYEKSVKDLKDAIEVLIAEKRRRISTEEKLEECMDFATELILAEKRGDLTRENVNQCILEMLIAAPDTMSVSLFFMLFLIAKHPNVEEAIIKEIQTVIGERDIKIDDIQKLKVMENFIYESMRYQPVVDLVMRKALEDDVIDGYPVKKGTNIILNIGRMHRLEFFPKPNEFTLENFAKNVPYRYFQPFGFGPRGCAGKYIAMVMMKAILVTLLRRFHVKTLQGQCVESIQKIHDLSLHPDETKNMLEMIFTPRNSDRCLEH
Description: (§1) Enzyme inhibition studies were performed by in vitro radiosubstrate incubations using human term placenta cytosol and microsomas as enzyme sources. […] Relative conversions compared to non-inhibited controls (100%) were measured in the presence of 10 µM concentration of the test compound. […] Mechanistic and kinetic investigations were performed and inhibitory constants (Ki) were determined for selected compounds.
(§2) Enzymatic incubations were carried out in the HEPES buffer medium at a final volume of 200
(§3) µl. The substrate was added to the incubate in 20 µl of a 25 v/v% propylene glycol in HEPES buffer solution, whereas test compounds were applied in 10 µl of dimethyl sulfoxide solution.
Incubations were performed at 37 °C and terminated by cooling and the addition of organic solvents of the subsequent extraction procedure. Control samples with no inhibitor and blank samples were incubated simultaneously. The radioactivity of the products formed was measured by means of liquid scintillation counting (LSC) and taken as indicator of the […]
In the aromatase assays the microsoma suspension was incubated with appropriate concentration of unlabelled testosterone (2) substrate spiked with [1,2,6,7-3H]testosterone tracer, and in the presence of 0.1 mM NADPH cofactor excess. (In this case, solution of the substrate was prepared with acetonitrile instead of propylene glycol.) Incubation time was 40 min. The incubation mixture was extracted with toluene, then the toluene phase was drained and washed with HEPES buffer. Aromatase products containing phenolic hydroxy group were extracted with 1.2 M sodium hydroxide solution from the toluene extract and the alkaline phase was measured in the LSC. […]
was extracted with toluene. […]
(§4) In the general procedure, incubations were performed as described. Concentrations of the substrates were 1.0 µM, and the test compounds were applied at 10 µM final concentration in the incubate. Relative conversions compared to non-inhibited controls (100%) were determined. The assays were performed in triplicate, and the mean value and the standard deviation (SD) were calculated. […]
(§5) these cases, conversions were measured at 10–15 different concentrations in the appropriate interval between 0.001–50 µM. IC50 results were calculated by using unweighted iterative least squares logistic curve fitting by means of the “absolute IC50 calculation“ function of the GraphPad Prism 4.0 software (GraphPad Software, Inc., San Diego, CA, USA).
Kinetic analyses were performed via measurement of the enzymatic transformation using different fixed substrate concentrations and varied inhibitor concentrations. The Dixon’s linear transformation (1/velocity vs. inhibitor concentration) was applied for evaluation and the inhibition constant (Ki) was determined from abscissa of intersection of the lines of different substrate concentrations. Mechanism of binding was identified according to the […]

steroid sulfatase (STS) = biological target: T3, steroid sulfatase (STS) (Homo sapiens, UniProt P08842); test: STS inhibition, in vitro radiosubstrate incubation (release of E1 from E1S), human placental microsomes; Dixon kinetic analysis; assay type: biochemical; settings: for remaining activity at 10 µM: read-out: STS Rel.conv. ± SD
T3 construct: from tissue; host or cells: human term placenta, microsomal fraction
T3 sequence (P08842 22-583): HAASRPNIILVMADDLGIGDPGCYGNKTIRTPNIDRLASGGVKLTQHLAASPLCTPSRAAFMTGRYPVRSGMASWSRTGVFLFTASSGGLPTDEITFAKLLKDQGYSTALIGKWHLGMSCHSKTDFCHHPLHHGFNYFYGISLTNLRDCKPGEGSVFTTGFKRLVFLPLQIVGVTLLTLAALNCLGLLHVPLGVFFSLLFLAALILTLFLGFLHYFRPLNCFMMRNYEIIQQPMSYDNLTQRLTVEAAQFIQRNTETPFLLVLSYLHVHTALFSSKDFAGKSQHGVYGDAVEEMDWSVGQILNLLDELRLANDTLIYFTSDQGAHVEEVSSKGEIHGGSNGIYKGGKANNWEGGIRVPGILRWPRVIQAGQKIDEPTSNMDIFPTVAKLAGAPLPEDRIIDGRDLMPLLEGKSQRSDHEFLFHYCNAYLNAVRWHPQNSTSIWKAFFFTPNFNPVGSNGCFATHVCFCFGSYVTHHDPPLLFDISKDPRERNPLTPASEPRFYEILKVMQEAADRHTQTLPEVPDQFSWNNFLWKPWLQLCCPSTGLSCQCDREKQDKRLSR
Description: as §1
Kinetic analyses of selected compounds 7a and 16c were performed by measurement of enzyme activities using different fixed substrate concentrations and varied inhibitor concentrations.
as §2, §3
(§6) Incubations were performed at 37 °C and terminated by cooling and the addition of organic solvents of the subsequent extraction procedure. Control samples with no inhibitor and blank samples were incubated simultaneously. […]
The incubation time was 2.5 min. […]
as §4, §5
(§7) Kinetic analyses were performed via measurement of the enzymatic transformation using different fixed substrate concentrations and varied inhibitor concentrations. The Dixon’s linear transformation (1/velocity vs. inhibitor concentration) was applied for evaluation and the inhibition constant (Ki) was determined from abscissa of intersection of the lines of different substrate concentrations. Mechanism of binding was identified according to the Dixon’s graphs and the secondary plot of slopes of the Dixon’s lines vs. 1/substrate […]
The inhibitor compounds were preincubated with the appropriate placenta fraction in a volume of 4.0 µl at 37 °C for various time periods (2.5-40 min). Following this procedure, […]

[2] = biological target: T1, 17β-hydroxysteroid dehydrogenase type 1 (17β-HSD1); test: 17β-HSD1 inhibition, in vitro radiosubstrate incubation (E1 to E2), human placental cytosol; Dixon kinetic analysis; assay type: biochemical; settings: for IC50: E1 substrate 1.0 µM, NADPH excess; for 17β-HSD1 Rel.conv. ± SD: 10 µM test compound, non-inhibited control 100%, mean ± SD, n = 3
Description: as §1
Inhibitors that bind to the steroid site of 17β-HSD1 can bind to both the free enzyme and the binary enzyme–cofactor complex by random kinetic mechanism.
as §2, §3, §6
The incubation time was 2.5 min. The product 17β-estradiol (E2, 5) was extracted with ethyl acetate and isolated by a TLC method (details are published in our earlier reference).
as §4, §5, §7
The inhibitor compounds were preincubated with the appropriate placenta fraction in a volume of 4.0 µl at 37 °C for various time periods (2.5-40 min). Following this procedure, samples were diluted with the incubation medium to 50-fold. Enzyme activity measurements

aromatase enzyme = biological target: aromatase enzyme; parameters: method as in PMID 16039845; settings: cited from earlier work
[3] = 10 µM test compound, non-inhibited control 100%, mean ± SD, n = 3
[4] = E1S substrate 1.0 µM, read-out: STS IC50 ± SD

SMILES	remaining activity at 10 µM (human aromatase; [3])	remaining activity at 10 µM (steroid sulfatase (STS); [3])	IC50 ([2]; read-out: 17β-HSD1 IC50 ± SD)	IC50 (steroid sulfatase (STS); [4])	other results
C[C@@]12CC[C@@H]3c4cc(I)c(O)cc4CC[C@H]3[C@@H]1CCC2=O [10a]	82 ± 10%	83 ± 3%	–	–	IC50 [1]: 0.59 ± 0.23 µM
C[C@]12CC[C@@H]3c4cc(I)c(O)cc4CC[C@H]3[C@@H]1CCC2=O [6a, 2-Iodoestrone]	66%	64 ± 3%	0.064 ± 0.034 µM	–	IC50 (human aromatase; testosterone substrate 1.0 µM, read-out: Arom IC50 ± SD): > 10 µM
C[C@]12CCC[C@H]1[C@@H]1CCc3c(ccc(O)c3Br)[C@H]1CC2 [15b]	90 ± 8%	–	11 ± 4 µM	3.7 ± 1.2 µM	17β-HSD1 Rel.conv. ± SD [2]: 49 ± 12%
C[C@]12CC[C@@H]3c4cc(Cl)c(O)c(Cl)c4CC[C@H]3[C@@H]1CCC2=O [8c]	–	–	–	–	remaining activity at 10 µM (human aromatase): 82 ± 4%; IC50 (steroid sulfatase (STS)): 3 ± 0.9 µM; IC50 ([2]; 17β-HSD1 IC50 ± SD): 0.59 ± 0.16 µM
C[C@]12CC[C@@H]3c4ccc(O)cc4CC[C@H]3[C@@H]1CCC2=O [E1 (4), estrone, reference compound]	78%	–	–	–	IC50 (human aromatase): > 10 µM; Ki (aromatase enzyme): 2.5 µM; IC50 (steroid sulfatase (STS)): 24 ± 10 µM
C[C@]12CCC[C@H]1[C@@H]1CCc3cc(O)ccc3[C@H]1CC2 [compound 13, 17-deoxy-13α-estrone]	95 ± 12%	76 ± 5%	1.1 ± 0.33 µM	–	Ki ([2]; from Dixon plot, cofactor excess): 2 µM
C[C@]12CC[C@@H]3c4ccc(O)c(Br)c4CC[C@H]3[C@@H]1CCC2=O [7b, 4-bromoestrone]	91 ± 6%	–	0.3 ± 0.2 µM	0.89 ± 0.3 µM	–
C[C@]12CCC[C@H]1[C@@H]1CCc3c(cc(I)c(O)c3I)[C@H]1CC2 [16a]	94 ± 2%	59 ± 13%	–	–	17β-HSD1 Rel.conv. ± SD [2]: 61 ± 7%
C[C@]12CCC[C@H]1[C@@H]1CCc3cc(O)c(I)cc3[C@H]1CC2 [14a]	89 ± 9%	–	2.9 ± 1.6 µM	3.9 ± 1.6 µM	–
C[C@]12CC[C@@H]3c4cc(Br)c(O)c(Br)c4CC[C@H]3[C@@H]1CCC2=O [8b]	81 ± 5%	–	0.96 ± 0.45 µM	2.1 ± 0.6 µM	–
C[C@]12CCC[C@H]1[C@@H]1CCc3cc(O)c(Br)cc3[C@H]1CC2 [14b]	97 ± 5%	–	1.3 ± 0.8 µM	4.1 ± 1.3 µM	–
C[C@@]12CC[C@@H]3c4cc(Br)c(O)cc4CC[C@H]3[C@@H]1CCC2=O [10b]	100 ± 5%	81 ± 6%	–	–	IC50 [1]: 1.2 ± 0.3 µM
C[C@]12CCC[C@H]1[C@@H]1CCc3c(ccc(O)c3Cl)[C@H]1CC2 [15c]	89 ± 1%	–	4.5 ± 2 µM	6.3 ± 1.8 µM	–
C[C@]12CC[C@@H]3c4ccc(O)c(Cl)c4CC[C@H]3[C@@H]1CCC2=O [7c]	–	–	–	–	remaining activity at 10 µM (human aromatase): 92 ± 3%; IC50 (steroid sulfatase (STS)): 1.6 ± 0.3 µM; IC50 ([2]; 17β-HSD1 IC50 ± SD): 0.6 ± 0.16 µM
C[C@]12CCC[C@H]1[C@@H]1CCc3c(cc(Br)c(O)c3Br)[C@H]1CC2 [16b]	–	–	–	–	remaining activity at 10 µM (human aromatase): 82 ± 6%; IC50 (steroid sulfatase (STS)): 7.5 ± 2 µM; IC50 ([2]; 17β-HSD1 IC50 ± SD): 4.1 ± 2.5 µM
C[C@@]12CC[C@@H]3c4cc(Cl)c(O)c(Cl)c4CC[C@H]3[C@@H]1CCC2=O [12c]	–	–	–	–	remaining activity at 10 µM (human aromatase): 101 ± 4%; remaining activity at 10 µM (steroid sulfatase (STS)): 70 ± 3%; IC50 ([2]; 17β-HSD1 IC50 ± SD): 2.2 ± 0.6 µM
C[C@]12CCC[C@H]1[C@@H]1CCc3c(ccc(O)c3I)[C@H]1CC2 [15a]	92 ± 7%	–	–	2.7 ± 1.3 µM	17β-HSD1 Rel.conv. ± SD [2]: 57 ± 9%
C[C@]12CCC[C@H]1[C@@H]1CCc3cc(O)c(Cl)cc3[C@H]1CC2 [14c]	88 ± 10%	–	2.6 ± 1.3 µM	7 ± 1.9 µM	–
C[C@@]12CC[C@@H]3c4cc(Cl)c(O)cc4CC[C@H]3[C@@H]1CCC2=O [10c]	106 ± 6%	57 ± 1%	0.33 ± 0.1 µM	–	–
C[C@@]12CC[C@@H]3c4ccc(O)cc4CC[C@H]3[C@@H]1CCC2=O [compound 9, 13α-Estrone]	85 ± 13%	96 ± 1%	–	–	–
C[C@@]12CC[C@@H]3c4ccc(O)c(Cl)c4CC[C@H]3[C@@H]1CCC2=O [11c]	–	–	–	–	remaining activity at 10 µM (human aromatase): 98 ± 3%; remaining activity at 10 µM (steroid sulfatase (STS)): 80 ± 7%; IC50 ([2]; 17β-HSD1 IC50 ± SD): 2.6 ± 1 µM
C[C@@]12CC[C@@H]3c4ccc(O)c(Br)c4CC[C@H]3[C@@H]1CCC2=O [11b]	78 ± 1%	–	–	8.5 ± 3.1 µM	IC50 [1]: 2.1 ± 1.2 µM
C[C@]12CC[C@@H]3c4cc(I)c(O)c(I)c4CC[C@H]3[C@@H]1CCC2=O [8a]	86 ± 6%	80 ± 13%	–	–	17β-HSD1 Rel.conv. ± SD [2]: 55 ± 7%
C[C@@]12CC[C@@H]3c4cc(Br)c(O)c(Br)c4CC[C@H]3[C@@H]1CCC2=O [12b]	108 ± 11%	71 ± 4%	–	–	IC50 [1]: 2.7 ± 0.1 µM
